Source: US12296023B2, “Chemically and photochemically initiated cell membrane blebbing to induce cell vesicle production, modifications thereof, and uses thereof” (The Regents of the University of California, priority 2018, dated 2025)

Key:
[1] = test system: AAV isolate from lysate; test: Transduction of NEM-treated AAV from producer cell lysate; format: cell-based, AAV2
[2] = test system: HeLa cells; test: N-ethylmaleimide induced cell vesicle production time course; format: cell-based, human; settings: 2 mM NEM in 1×DPBS; 1 h, 3 h, 5 h, 8 h, 24 h
Experimental: Protocol for N-ethylmaleimide induced cell vesicle production: HeLa cells were plated at 70% confluency (6×10^6 cells/100 mm cell culture plate) and incubated for 4 h at 37° C. and 5% CO2. Media was removed and cells were washed three times with 10 mL of 1×DPBS. […] Cells were imaged using a standard inverted light microscope and DPBS solution containing ICVs were collected, isolated, and analyzed by dynamic light scattering (DLS) for size.
Protocol for nano- and microscale induce cell vesicle isolation: Cells and debris were removed by centrifugation at 1200 rpm for 5.5 min, repeated three times, each time collecting supernatant into a clean tube. Then, mICVs were isolated from the supernatant by centrifugation at 16,000×g for 10 min. After the first spin, supernatant was collected for nICV isolation while micro ICV pellets were washed with 1×DPBS. This was repeated two additional times, discarding supernatant and washing the mICV pellet with 1×DPBS. nICVs were isolated using 100 kDa Amicon® ultrafiltration at 3300×g for 15 min, repeated three times with 1×DPBS washes. Final mICVs and nICVs collected were suspended in 100 uL 1×DPBS and then characterized.
(§1) Characterization of mICVs and nICVs: mICVs and nICVs were imaged using a bright field microscope and inverted light microscope. The sizing of produced ICVs were measured by using dynamic light scattering (DLS). […]

[3] = test system: stock AAV; test: Transduction of NEM-treated stock AAV; format: cell-based, AAV2
[4] = test system: E.G7-OVA cells; test: Tumor challenge study after vaccination; format: in vivo, C57BL/6 mice; settings: for tumor growth: s.c. vaccination plus booster, 300,000 E.G7-OVA cells s.c.; for survival: tumor challenge
Experimental: Tumor challenge study. 12 wk.-old C57BL/6 mice (Charles River Laboratories, Wilmington, MA) were vaccinated by s.c. injection with DPBS, OVA protein, SIINFEKL peptide, SIINFEKL-presenting BDMCs, or SIINFEKL-presenting BMDC mICVs. With the exception of the control (DPBS) group, each group received vaccinations that were equivalent to a dosage of 100 μL of 50 μM SIINFEKL as quantified by CPRG assay. Vaccinations were given twice 14 days apart. 7 days after the second injection, mice were injected s.c. with 300,000 E.G7-OVA cells in the right flank. Tumor growth was monitored by measuring the tumor size with calipers every 48 h.
Mice received a single vaccination followed by a booster vaccination two weeks later). Seven days after completion of a vaccination schedule. mice were challenged with E.G7-OVA cells and tumor growth was assessed over four weeks. FIG. 72 provides images from Day 30 of the tumor challenge with mice by vaccine category. […] The foregoing tumor challenge result indicates promise for use of antigenic ICVs as effective cancer vaccines.

[5] = test system: HeLa cells; test: AlPcS2A photoinitiated induced cell vesicle production (670 nm laser); format: cell-based, human; settings: 1 ug/mL for 24 h then light, vs light alone
Experimental: Protocol for Photoinitiated induced cell vesicle production: HeLa cells were plated at 70% confluency (6×10^6 cells/100 mm cell culture plate) and incubated for 4 h at 37° C. and 5% CO2. Cells were then imaged to confirm adherence to the plate and, in the dark, media was changed to media containing 1 ug/mL of the photosensitizer aluminum disulfonated phthalocyanine (AlPcS2A) (10 mL of photosensitizer media per 100 mm each plate). Plates were wrapped in tinfoil and allowed to incubate for 24 h at 37° C. and 5% CO2. In the dark, the photosensitive media was removed and cells were washed three times with 10 mL of 1×DPBS. Then, 6 mL of 1×DPBS was added to each 100 mm plate and the plates were subjected to a 670 nm laser for varying time doses (10 min, 5 min, 2.5 min, 1.25 min). Cells were imaged using a standard inverted light microscope, and the DPBS solution containing ICVs was collected. 6 mL of fresh 1×DPBS was added to each 100 mm plate and the plates were incubated at 37° C. and 5% CO2 for 18 h to investigate ICV formation effects over time. Cells were imaged using a standard inverted light microscope and the DPBS solution containing ICVs was collected. […]
as §1

CCN1C(=O)C=CC1=O [NEM, N-ethylmaleimide]
transduction of AAV isolate from lysate ([1]; NEM exposure 8 hours vs 0-minute timepoint): about half the transduction | transduction of AAV isolate from lysate ([1]; NEM exposure up to 4 hours): only a minimal drop in transduction | formation of nICVs [2]: induced the formation of nICVs at each time point | stock AAV transduction efficiency ([3]; NEM incubation 10 minutes): reducing the transduction efficiency | stock AAV transduction ([3]; NEM incubation 2 hours): almost no transduction

SIINFEKL [antigen peptide vaccination control]
tumor growth [4]: rapidly developed tumors | survival [4]: died prior to day 35

OVA: OVA protein vaccination control
tumor growth [4]: rapidly developed tumors | survival [4]: died prior to day 35

aluminum disulfonated phthalocyanine [AlPcS2A]
yield of nICVs and mICVs [5]: greatly increased the yield of nICVs and mICVs
